From patent US9284348B2, “Method for synthesis of peptide using a carrier” (JITSUBO Co., Ltd., priority 2005, dated 2016)
Converted amounts (≈) assume the structure as drawn.

Legend:
[1] = Evaluation of solubility in organic solvents at 25° C.; type: physicochemical; details: tetrahydrofuran, organic solvent or mixture
Procedure: The compound 2 (2,4-bisoctadecyloxyphenylmethanol) thus obtained was measured for solubility in hexane, cyclohexane, dichloromethane and tetrahydrofuran, respectively, when used as solvents at 25° C.
3,4,5-Tris-octadecyloxybenzylalcohol (compound 6) having the following chemical formula was measured for solubility in various solvents at 25° C. similar to as in Example 1.

[2] = Evaluation of separation efficiency: excision of the compound from the carrier with trifluoroacetic acid/dichloromethane, material consumption by HPLC; type: physicochemical
Procedure: By stirring the obtained compound 7 (4-iodo-benzoic acid 2,4-bis-octadecyloxybenzyl ester) in solvents listed in Table 2 and for the times shown in Table 2, separation of the compound from the carrier was performed to obtain the reaction rate. In this case, the reaction rate was calculated by assessing the disappearance of material by HPLC.
Regarding compound 9 (4-iodo-benzoic acid 3,4,5-tris-octadecyloxybenzyl ester) having the following formula 6, which was prepared by condensing 4-iodobenzoic acid to compound 6 (3,4,5-tris-octadecyloxybenzyl alcohol), the separation reaction rate was measured under various conditions similar to in Example 2.
The above-obtained compound was evaluated for the separation efficiency, similar to Example 3, when it was stirred in dichloromethane containing 1% trifluoroacetic acid for 30 min. As a result, the reaction rate was 100%.

[3] = 1% trifluoroacetic acid/dichloromethane, 30 min
[4] = 10% trifluoroacetic acid/dichloromethane, 120 min
[5] = 50% trifluoroacetic acid/dichloromethane, 120 min

solubility [1] [mg/mL]	Reaction rate (material consumption evaluated by HPLC measurement) [2, 3]	Reaction rate (material consumption evaluated by HPLC measurement) [2, 4] [%]	Reaction rate (material consumption evaluated by HPLC measurement) [2, 5] [%]	Structure (SMILES)
236 (≈ 312 mM)				CCCCCCCCCCCCCCCCCCCCCCOc1ccc(CO)c(OCCCCCCCCCCCCCCCCCCCCCC)c1 [2,4-bis-docosanoxyphenyl methanol]
	100%			CCCCCCCCCCCCCCCCCCCCCCOc1ccc(COC(=O)c2ccc(I)cc2)c(OCCCCCCCCCCCCCCCCCCCCCC)c1 [4-iodo-benzoic acid 2,4-bis-docosanoxybenzyl ester]
	100%	100	100	CCCCCCCCCCCCCCCCCCOc1ccc(COC(=O)c2ccc(I)cc2)c(OCCCCCCCCCCCCCCCCCC)c1 [Compound 7, 4-iodo-benzoic acid 2,4-bis-octadecyloxybenzyl ester]
	1< %	12	100	CCCCCCCCCCCCCCCCCCOc1cc(COC(=O)c2ccc(I)cc2)cc(OCCCCCCCCCCCCCCCCCC)c1OCCCCCCCCCCCCCCCCCC [Compound 9, 4-iodo-benzoic acid 3,4,5-tris-octadecyloxybenzyl ester, reference compound]
